From ChEMBL document CHEMBL1201862, “PubChem BioAssay data set” (2004) come the findings set out here.

Some test systems named below: A498; EKVX; HCT-15; HOP-62; HT-29; IGROV-1; MDA-MB-231; NCI-H23; NCI-H522; OVCAR-4; OVCAR-8; PC-3; RPMI-8226; SK-MEL-28; SK-MEL-5; SK-OV-3; SN12C; SNB-75; UACC-62; UO-31.
Common to all, as to test: growth of human tumour cells (NCI), 48 h

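Interpolation was linear, between the two tested concentrations surrounding the appropriate level; five concentrations were tested over 48 hours in 96-well plates. At the GI50, growth is halved.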 The source made the active and inactive calls. No stated cut-off is given here; in the data, active = GI50 up to about 1.1 µM and inactive = higher.

On to `BrCCC[P+](c1ccccc1)(c1ccccc1)c1ccccc1`, for which the GI50 in the experiment with A498 was 49.5 µM (inactive); in the experiment on EKVX it was 14.4 µM (inactive); in the experiment with HCT-15 it was over 100 µM; in the experiment with HOP-62, 11.3 µM (inactive); with HT-29, 15.9 µM (inactive); with IGROV-1 it was 5.45 µM (inactive). In addition, the GI50 with MDA-MB-231 is 8.13 µM (inactive); with NCI-H23, 12.3 µM (inactive); with NCI-H522 it was 3.34 µM (inactive); in the experiment on OVCAR-4, 31.3 µM (inactive); with OVCAR-8 it was 12.4 µM (inactive); in the experiment on PC-3 it was 5.65 µM (inactive). Moreover, the GI50 in the experiment on RPMI-8226 is 0.615 µM (active); in the experiment on SK-MEL-28, 19 µM (inactive); in the experiment on SK-MEL-5 it was 6.27 µM (inactive); in the experiment with SK-OV-3, 83.4 µM (inactive); with SN12C, 23.1 µM (inactive); in the experiment on SNB-75, 12 µM (inactive). Besides, the GI50 with UACC-62 is 14 µM (inactive); with UO-31 it was > 100 µM (inactive).

Turning to `CN(CCCCN1CCCC1)CCCN(C)C(=O)Cc1ccc(Cl)c(Cl)c1`, the GI50 in the experiment with A498 was 15.8 µM (inactive); with EKVX, 19.5 µM (inactive); with HCT-15, 27.3 µM; in the experiment with HOP-62 it was 13.9 µM (inactive); with HT-29, 4.45 µM (inactive); with IGROV-1, 20.2 µM (inactive). For the same compound, the GI50 in the experiment on MDA-MB-231 is 10.2 µM (inactive); in the experiment with NCI-H23, 18 µM (inactive); in the experiment on NCI-H522 it was 13.1 µM (inactive); with OVCAR-4, 20 µM (inactive); in the experiment on OVCAR-8, 24.4 µM (inactive); in the experiment with PC-3, 19.1 µM (inactive). The GI50 in the experiment on RPMI-8226 was 5.85 µM (inactive); with SK-MEL-28, 1.79 µM (inactive); in the experiment with SK-MEL-5, 9.98 µM (inactive); with SK-OV-3, 33.3 µM (inactive); in the experiment with SN12C, 17.5 µM (inactive); in the experiment with SNB-75 it was 20.7 µM (inactive). The GI50 is 4.33 µM (inactive) in the experiment on UACC-62 and 1.95 µM (inactive) in the experiment with UO-31.

With `CN(C)CCCN=C(N)N`, the GI50 in the experiment with A498 is > 100 µM (inactive); with EKVX, > 100 µM (inactive); in the experiment with HCT-15 it was over 100 µM; in the experiment with HOP-62 it was > 100 µM (inactive); with HT-29 it was > 100 µM (inactive); in the experiment with IGROV-1 it was > 100 µM (inactive). The GI50 in the experiment on MDA-MB-231, in the experiment with NCI-H23, in the experiment with NCI-H522, with OVCAR-4, in the experiment on OVCAR-8 and with PC-3 was > 100 µM (inactive) throughout. In addition, the GI50 in the experiment with RPMI-8226, in the experiment on SK-MEL-28, in the experiment with SK-MEL-5, in the experiment with SK-OV-3, with SN12C and in the experiment on SNB-75 was > 100 µM (inactive) throughout. Further, the GI50 in the experiment on UACC-62 and in the experiment on UO-31 was > 100 µM (inactive) each time.

Consider `NS(=O)(=O)c1ccc(NCc2cnc3ccccc3n2)cc1`, for which the GI50 in the experiment with A498 is > 100 µM (inactive); in the experiment on EKVX, > 100 µM (inactive); with HCT-15 it was over 100 µM; in the experiment with HOP-62, > 100 µM (inactive); with HT-29, > 100 µM (inactive); in the experiment with IGROV-1 it was > 100 µM (inactive). Further, the GI50 in the experiment with MDA-MB-231, with NCI-H23, in the experiment on NCI-H522, with OVCAR-4, in the experiment on OVCAR-8 and with PC-3 was > 100 µM (inactive) in each case. Further, the GI50 in the experiment on RPMI-8226, in the experiment with SK-MEL-28, in the experiment on SK-MEL-5, in the experiment with SK-OV-3, in the experiment on SN12C and in the experiment on SNB-75 was > 100 µM (inactive) throughout. Moreover, the GI50 in the experiment on UACC-62 and with UO-31 was > 100 µM (inactive) throughout.

Consider `CC(SCc1ccccc1)C(=O)O` (stereo not drawn), for which the GI50 was > 100 µM (inactive) with A498; > 100 µM (inactive) in the experiment with EKVX; over 100 µM in the experiment with HCT-15; > 100 µM (inactive) with HOP-62; > 100 µM (inactive) in the experiment on HT-29; > 100 µM (inactive) with IGROV-1. Also, the GI50 in the experiment on MDA-MB-231, with NCI-H23, in the experiment with NCI-H522, in the experiment with OVCAR-4, in the experiment on OVCAR-8 and with PC-3 was > 100 µM (inactive) each time. Further, the GI50 with RPMI-8226, with SK-MEL-28, in the experiment on SK-MEL-5, in the experiment with SK-OV-3, in the experiment on SN12C and with SNB-75 was > 100 µM (inactive) in each case. For the same compound, the GI50 with UACC-62 and in the experiment with UO-31 was > 100 µM (inactive) in each case.

With `COc1ccc(S(=O)(=O)NC(CCC(=O)NC(N)=O)C(=O)NC(N)=O)cc1` (stereo not drawn), the GI50 in the experiment with A498 was > 100 µM (inactive); in the experiment on EKVX, > 100 µM (inactive); in the experiment on HCT-15, over 100 µM; in the experiment on HOP-62, > 100 µM (inactive); in the experiment with HT-29, > 100 µM (inactive); in the experiment with IGROV-1 it was > 100 µM (inactive). In addition, the GI50 in the experiment with MDA-MB-231, in the experiment on NCI-H23, in the experiment with NCI-H522, in the experiment on OVCAR-4, in the experiment on OVCAR-8 and in the experiment on PC-3 was > 100 µM (inactive) throughout. Moreover, the GI50 in the experiment with RPMI-8226, in the experiment on SK-MEL-28, in the experiment with SK-MEL-5, with SK-OV-3, with SN12C and with SNB-75 was > 100 µM (inactive) in each case. The GI50 in the experiment with UACC-62 and with UO-31 was > 100 µM (inactive) in each case.

Consider `COc1ccc(C2=CC(C(C)=C(C(N)=O)C(N)=O)C=C(c3ccc(Br)cc3)C2)c(OC)c1` (stereo not drawn), for which the GI50 is > 100 µM (inactive) in the experiment with A498; 44.2 µM (inactive) in the experiment with EKVX; over 100 µM in the experiment with HCT-15; > 100 µM (inactive) with HOP-62; > 100 µM (inactive) in the experiment on HT-29; 94.6 µM (inactive) in the experiment with IGROV-1. Moreover, the GI50 with MDA-MB-231 is > 100 µM (inactive); in the experiment with NCI-H23, > 100 µM (inactive); in the experiment on NCI-H522, > 100 µM (inactive); in the experiment on OVCAR-4 it was > 100 µM (inactive); in the experiment on OVCAR-8, > 100 µM (inactive); with PC-3 it was 50.5 µM (inactive). The GI50 was > 100 µM (inactive) with RPMI-8226; > 100 µM (inactive) in the experiment with SK-MEL-28; > 100 µM (inactive) in the experiment on SK-MEL-5; > 100 µM (inactive) in the experiment on SK-OV-3; > 100 µM (inactive) in the experiment with SN12C; 66.1 µM (inactive) with SNB-75. Besides, the GI50 with UACC-62 was > 100 µM (inactive); in the experiment with UO-31 it was 39.9 µM (inactive).

For the compound `COc1ccc(-n2cnc3c(N)nc(N)nc32)cc1`, the GI50 was 54.8 µM (inactive) with A498; 24.8 µM (inactive) in the experiment with EKVX; over 100 µM in the experiment on HCT-15; > 100 µM (inactive) in the experiment with HOP-62; > 100 µM (inactive) in the experiment on HT-29; 56.9 µM (inactive) in the experiment on IGROV-1. Besides, the GI50 with MDA-MB-231 is 57.8 µM (inactive); in the experiment on NCI-H23, > 100 µM (inactive); with NCI-H522, > 100 µM (inactive); with OVCAR-4 it was > 100 µM (inactive); in the experiment with OVCAR-8, > 100 µM (inactive); in the experiment on PC-3, > 100 µM (inactive). Also, the GI50 is > 100 µM (inactive) with RPMI-8226; > 100 µM (inactive) in the experiment on SK-MEL-28; > 100 µM (inactive) in the experiment on SK-MEL-5; > 100 µM (inactive) in the experiment with SK-OV-3; 53.6 µM (inactive) with SN12C; 45.7 µM (inactive) in the experiment on SNB-75. Besides, the values for the GI50 in the experiment on UACC-62 and in the experiment with UO-31 were 30.8 µM (inactive) and 65 µM (inactive), respectively.

For the compound `C=C[C@]1(C)CC(=O)C(C(C)C=O)[C@]12C(=O)Oc1cccc(C)c1C2=O` (stereo partly drawn), the GI50 in the experiment on A498 is 25.9 µM (inactive); in the experiment with EKVX, 19.4 µM (inactive); in the experiment on HCT-15 it was 14.9 µM; with HOP-62 it was 20.2 µM (inactive); with HT-29, 13.7 µM (inactive); in the experiment with MDA-MB-231, 17.6 µM (inactive). The GI50 in the experiment on NCI-H23 is 17.1 µM (inactive); in the experiment with NCI-H522, 3.72 µM (inactive); in the experiment on OVCAR-4, 17.2 µM (inactive); with OVCAR-8, 16.1 µM (inactive); with PC-3, 13.3 µM (inactive); with RPMI-8226 it was 8.22 µM (inactive). For the same compound, the GI50 in the experiment on SK-MEL-28 was 15.2 µM (inactive); in the experiment with SK-MEL-5 it was 13.2 µM (inactive); in the experiment with SK-OV-3, 16.6 µM (inactive); in the experiment on SN12C, 16.3 µM (inactive); in the experiment on SNB-75, 16.4 µM (inactive); in the experiment on UACC-62, 16.1 µM (inactive). Further, the GI50 in the experiment on UO-31 was 15.5 µM (inactive).

Take `CC(C(=O)c1ccccc1)C(c1ccccc1)N1CCOCC1` (stereo not drawn): the GI50 was > 100 µM (inactive) in the experiment on A498; > 100 µM (inactive) in the experiment with EKVX; over 100 µM in the experiment on HCT-15; > 100 µM (inactive) with HOP-62; > 100 µM (inactive) in the experiment on HT-29; > 100 µM (inactive) with IGROV-1. Moreover, the GI50 in the experiment on MDA-MB-231, with NCI-H23, in the experiment on NCI-H522, in the experiment with OVCAR-4, in the experiment on OVCAR-8 and with PC-3 was > 100 µM (inactive) each time. The GI50 in the experiment with RPMI-8226 was 54.3 µM (inactive); with SK-MEL-28, > 100 µM (inactive); in the experiment with SK-MEL-5 it was > 100 µM (inactive); in the experiment on SK-OV-3, > 100 µM (inactive); in the experiment on SN12C, > 100 µM (inactive); in the experiment with SNB-75 it was > 100 µM (inactive). The GI50 with UACC-62 was > 100 µM (inactive).
